Literature values in patent publication US6284909A, “Preparations of thiophosphites and thiophosphonates” (University of Southern California, priority 2000, dated 2001).
Like-named read-outs stand apart in the source and are kept apart here.

Columns and labels:
[1] = clinical trials
[2] = clinical trials; remark: listed apart in the source
H9 cells = conditions: at effective antiviral doses
CMV = conditions: in culture
HIV [3] = tested on: HIV
[4] = tested on: HIV reverse transcriptase
HIV [5] = conditions: U.S. Pat. Nos. 5,072,032 and 5,183,812
[6] = tested on: DNA polymerase of Cytomegalovirus (CMV)
[7] = tested on: Herpesvirus DNA polymerases

Row | Structure (SMILES) | inhibition of HIV-1 (HIV-1) | oral bioavailability [1] | characterization of nephrotoxicity: serum creatinine [2] | characterization of nephrotoxicity: tubulopathy [2] | nephrotoxicity [2] | toxicity to cultured H9 cells (H9 cells) | antiviral activity against CMV-infected cells (CMV) | antiviral activity against HIV compared to DNA polymerase inhibiting activity (HIV [3]) | selectivity of inhibition of isolated HIV RT ([4]; in vitro, vs human DNA polymerases) | IC50 ([4]; isolated HIV RT, in vitro, Thiovir, read-out: IC50) [nM] | effectiveness against HIV, the AIDS virus (HIV [5]) | inhibition of the DNA polymerase of Cytomegalovirus (CMV) [6] | inhibition of human DNA polymerases, compared with Thiovir (human DNA polymerases) | inhibition of several Herpesvirus DNA polymerases [7] | IC50 ([4]; trisodium phosphonoformate, known, read-out: IC50 (HIV reverse transcriptase)) [nM]
1 | O=C(O)P(=O)(O)O [PFA, phosphonoformic acid] | shown to inhibit HIV-1 | poor | increased serum creatinine | acute toxic tubolopathy | reversible nephrotoxity | – | – | – | – | – | – | – | – | – | –
2 | O=C(O)P(O)(O)=S [Thiovir®, trisodium thiophosphonoformate] | – | – | – | – | – | non-toxic | exhibited antiviral activity against CMV-infected cells | unexpectedly high antiviral activity against HIV | selectively inhibited | ~1000 | effective against HIV | – | – | – | –
3 | O=C(O)P(=O)(O)O [foscarnet, Trisodium phosphonoformate] | – | – | – | – | – | non-toxic | – | – | – | – | – | inhibit | more inhibitory to human DNA polymerases | inhibit several Herpesvirus DNA polymerases | ~1000
